From article PMC11864979, “First-in-class ultralong-target-residence-time p38α inhibitors as a mitosis-targeted therapy for colorectal cancer” (Nature Cancer, 2025) come the findings set out here.

Assay in all cases: selectivity profiling in a panel of 340 wild-type kinases (Reaction Biology Europe)
Holding throughout (assay type): binding

In assay [1] the target is T1, 340 wild-type kinases (Homo sapiens, UniProt O14965).
T1 construct: purchased Reaction Biology Europe
T1 sequence (O14965 1-403): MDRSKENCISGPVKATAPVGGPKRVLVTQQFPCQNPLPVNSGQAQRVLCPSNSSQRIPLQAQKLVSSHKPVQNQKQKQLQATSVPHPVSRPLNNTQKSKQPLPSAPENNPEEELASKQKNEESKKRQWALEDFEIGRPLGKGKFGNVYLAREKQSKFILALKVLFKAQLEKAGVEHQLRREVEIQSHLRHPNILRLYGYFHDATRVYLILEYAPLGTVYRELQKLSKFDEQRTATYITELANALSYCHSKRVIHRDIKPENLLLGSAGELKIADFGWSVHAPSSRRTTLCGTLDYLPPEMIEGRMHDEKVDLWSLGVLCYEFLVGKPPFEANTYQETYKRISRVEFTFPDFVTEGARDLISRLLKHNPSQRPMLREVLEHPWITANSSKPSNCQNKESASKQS

Assay [2] addresses T2, 340 wild-type kinases (Homo sapiens, UniProt P33981).
T2 construct: purchased Reaction Biology Europe
T2 sequence (P33981 1-857): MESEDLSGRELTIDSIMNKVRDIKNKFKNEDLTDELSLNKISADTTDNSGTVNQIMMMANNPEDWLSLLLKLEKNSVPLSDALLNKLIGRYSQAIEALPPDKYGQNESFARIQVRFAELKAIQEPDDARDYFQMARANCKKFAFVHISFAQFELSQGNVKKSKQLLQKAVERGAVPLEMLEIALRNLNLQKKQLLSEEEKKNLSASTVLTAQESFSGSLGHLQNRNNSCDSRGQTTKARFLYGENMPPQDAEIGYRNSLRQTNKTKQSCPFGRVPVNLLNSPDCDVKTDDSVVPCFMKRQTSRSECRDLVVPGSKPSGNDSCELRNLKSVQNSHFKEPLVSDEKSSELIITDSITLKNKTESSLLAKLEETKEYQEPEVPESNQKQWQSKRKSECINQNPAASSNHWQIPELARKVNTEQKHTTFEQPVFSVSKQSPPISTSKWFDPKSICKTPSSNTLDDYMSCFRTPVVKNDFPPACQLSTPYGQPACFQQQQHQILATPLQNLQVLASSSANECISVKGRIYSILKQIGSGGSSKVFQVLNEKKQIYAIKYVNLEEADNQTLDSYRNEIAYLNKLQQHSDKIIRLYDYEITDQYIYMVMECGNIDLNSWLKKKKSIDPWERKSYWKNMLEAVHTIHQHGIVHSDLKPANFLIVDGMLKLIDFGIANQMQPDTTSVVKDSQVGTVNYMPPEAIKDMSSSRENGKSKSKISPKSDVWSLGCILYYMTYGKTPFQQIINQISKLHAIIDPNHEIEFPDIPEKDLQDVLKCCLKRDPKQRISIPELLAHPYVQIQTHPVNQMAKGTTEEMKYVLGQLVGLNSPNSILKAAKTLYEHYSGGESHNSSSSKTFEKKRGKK

Assay [3] has as its target T3, 340 wild-type kinases (Homo sapiens, UniProt P45985).
T3 construct: purchased Reaction Biology Europe
T3 sequence (P45985 1-399): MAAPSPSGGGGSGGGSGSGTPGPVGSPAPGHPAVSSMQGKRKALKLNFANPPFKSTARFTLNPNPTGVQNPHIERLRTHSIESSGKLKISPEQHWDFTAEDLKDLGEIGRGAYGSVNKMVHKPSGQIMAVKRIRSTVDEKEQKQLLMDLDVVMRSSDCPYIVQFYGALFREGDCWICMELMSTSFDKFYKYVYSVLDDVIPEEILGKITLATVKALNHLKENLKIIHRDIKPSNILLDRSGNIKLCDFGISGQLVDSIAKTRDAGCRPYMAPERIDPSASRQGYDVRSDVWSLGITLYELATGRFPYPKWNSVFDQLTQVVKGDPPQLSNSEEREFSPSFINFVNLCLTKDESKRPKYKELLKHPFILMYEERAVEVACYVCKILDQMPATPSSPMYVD

Assay [4] has as its target T4, 340 wild-type kinases (Homo sapiens, UniProt Q07002).
T4 construct: purchased Reaction Biology Europe

Assay [5] concerns the target T5, 340 wild-type kinases (Homo sapiens, UniProt Q14680).
T5 construct: purchased Reaction Biology Europe

Where two headings read alike, the source gives them in different places.

T5 sequence (Q14680 whole entry): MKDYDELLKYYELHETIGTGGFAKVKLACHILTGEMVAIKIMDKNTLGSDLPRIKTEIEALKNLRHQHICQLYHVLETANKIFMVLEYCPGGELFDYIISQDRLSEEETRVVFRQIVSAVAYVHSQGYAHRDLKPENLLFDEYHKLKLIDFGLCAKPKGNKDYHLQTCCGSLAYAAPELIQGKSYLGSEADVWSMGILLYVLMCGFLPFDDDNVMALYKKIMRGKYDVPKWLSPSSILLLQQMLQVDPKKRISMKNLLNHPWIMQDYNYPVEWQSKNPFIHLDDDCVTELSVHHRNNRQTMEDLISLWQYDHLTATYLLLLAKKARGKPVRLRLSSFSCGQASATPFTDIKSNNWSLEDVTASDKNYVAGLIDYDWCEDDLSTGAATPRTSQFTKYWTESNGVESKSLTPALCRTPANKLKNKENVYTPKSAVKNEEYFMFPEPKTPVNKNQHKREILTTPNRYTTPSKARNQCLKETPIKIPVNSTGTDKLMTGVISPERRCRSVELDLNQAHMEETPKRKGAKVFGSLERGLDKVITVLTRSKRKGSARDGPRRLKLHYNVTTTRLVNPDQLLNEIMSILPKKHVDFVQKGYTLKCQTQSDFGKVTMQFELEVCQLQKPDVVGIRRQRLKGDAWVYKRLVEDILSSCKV
T4 sequence (Q07002 whole entry): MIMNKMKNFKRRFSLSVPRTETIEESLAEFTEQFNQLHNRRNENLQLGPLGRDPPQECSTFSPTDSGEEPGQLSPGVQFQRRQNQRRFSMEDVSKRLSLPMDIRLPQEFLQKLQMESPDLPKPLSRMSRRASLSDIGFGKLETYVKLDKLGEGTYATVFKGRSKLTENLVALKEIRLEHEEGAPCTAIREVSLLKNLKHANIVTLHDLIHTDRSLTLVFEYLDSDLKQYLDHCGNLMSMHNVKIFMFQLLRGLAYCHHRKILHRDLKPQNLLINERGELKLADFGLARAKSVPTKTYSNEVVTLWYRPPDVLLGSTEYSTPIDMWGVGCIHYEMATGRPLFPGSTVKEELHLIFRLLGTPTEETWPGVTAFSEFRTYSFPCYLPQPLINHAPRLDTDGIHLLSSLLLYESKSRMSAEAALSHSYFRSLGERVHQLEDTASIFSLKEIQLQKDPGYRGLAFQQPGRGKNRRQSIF

In the case of `CNC(=O)c1ccc2c(c1)C(=O)c1ccc(Nc3ccc(F)c(NC(=O)C4CC4)c3)cc1CC2` [Compound 2015], the remaining activity at 0.2 µM at 340 wild-type kinases [1] (0.2 µM 2015, read-out: AuroraA residual activity) came to 98.6%; on 340 wild-type kinases [1] (AuroraA, 0.2 µM, read-out: residual activity), 98.5%; on 340 wild-type kinases [2] (0.2 µM 2015, read-out: TTK residual activity), 95.3%; at 340 wild-type kinases [2] (TTK, 0.2 µM, read-out: residual activity), 95.3%; on 340 wild-type kinases [3] (0.2 µM 2015, read-out: MKK4 residual activity) it was 81.9%; on 340 wild-type kinases [3] (MKK4, 0.2 µM, read-out: residual activity), 81.9%. Further, the remaining activity at 0.2 µM at 340 wild-type kinases [4] (0.2 µM 2015, read-out: CDK18/CycY residual activity) came to 102%; at 340 wild-type kinases [4] (CDK18/CycY, 0.2 µM, read-out: residual activity), 102%; on 340 wild-type kinases [5] (0.2 µM 2015, read-out: MELK residual activity), 94.5%; on 340 wild-type kinases [5] (MELK, 0.2 µM, read-out: residual activity), 94.5%. In addition, the remaining activity at 1 µM was found to be 103% on 340 wild-type kinases [1] (1 µM 2015, read-out: AuroraA residual activity); 103% at 340 wild-type kinases [1] (AuroraA, 1 µM, read-out: residual activity); 90.4% on 340 wild-type kinases [2] (1 µM 2015, read-out: TTK residual activity); 90.4% on 340 wild-type kinases [2] (TTK, 1 µM, read-out: residual activity); 91.3% at 340 wild-type kinases [3] (1 µM 2015, read-out: MKK4 residual activity); 91.3% on 340 wild-type kinases [3] (MKK4, 1 µM, read-out: residual activity). Besides, the remaining activity at 1 µM was determined as 92.8% at 340 wild-type kinases [4] (1 µM 2015, read-out: CDK18/CycY residual activity); 92.8% on 340 wild-type kinases [4] (CDK18/CycY, 1 µM, read-out: residual activity); 91% at 340 wild-type kinases [5] (1 µM 2015, read-out: MELK residual activity); 91% on 340 wild-type kinases [5] (MELK, 1 µM, read-out: residual activity).
